From paper PMC6923382, “Small molecules that inhibit TNF signalling by stabilising an asymmetric form of the trimer” (Nature Communications, 2019)
Several values for one entry are separate records, joined by “and”; a condition that tells them apart may be missing. Equal values may be shown once.

How the values were obtained:
mouse TNF [1] = target: T1, mouse TNF (Mus musculus, UniProt P06804); assay: TNF reporter gene assay HEK-293, mouse TNF; format: cell-based; conditions: HEK-293 NF-kB reporter gene assay
T1 construct: stabilise an asymmetrical form of the soluble TNF trimer
T1 sequence (P06804 80-235 limits assumed): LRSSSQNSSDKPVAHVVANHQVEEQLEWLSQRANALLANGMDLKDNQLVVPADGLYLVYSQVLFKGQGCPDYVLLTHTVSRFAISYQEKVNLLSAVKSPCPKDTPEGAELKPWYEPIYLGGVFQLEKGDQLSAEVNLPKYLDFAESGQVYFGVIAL
Description: (§1) Stimulation of HEK-293 cells by TNF leads to activation of the NF-κB pathway. The HEK-Blue^TM CD40L SEAP (secreted embryonic alkaline phosphatase) reporter cell line used to determine TNF activity (InvivoGen, #hkb-CD40, cells were described as mycoplasma free when purchased and were tested using Mycoalert [Lonza] after each batch of assay vial preparation). Compounds were titrated in DMSO and pre-incubated with TNF at a concentration giving half maximal response (10 pM for human or 20 pM for mouse) or the anti-human TNFR1 agonist antibody (R&D Systems. #AF 225) for 1 h. Cells were added to the compound/stimulus mixture and further incubated for 18 h. SEAP was measured using the colorimetric substrate HEK-Blue Detect^TM or QUANTI-Blue^TM from InvivoGen. Percentage inhibitions for compound dilutions were calculated between a DMSO control and maximum inhibition (by excess anti-TNF biologic, or NF-κB inhibitor–TPCA-1 [Tocris #2559, R&D Systems]). The IC50 was determined as the point of inflexion between the fitted minimum and maximum of the compound dose response curve, calculated using 4PL fitted curve. Mean IC50s are reported as a mean of at least two experiments. Dose response curves for TNF and the anti-human TNFR1 agonist antibody are shown in Supplementary Fig. 9.

[2] = tested on: zymosan-induced neutrophil recruitment; assay: Zymosan induced neutrophil recruitment in vivo; design: species or system mouse; conditions: for percent over bar (inhibition of zymosan-induced neutrophil recruitment): Zymosan 1 µg per mouse i.p.; for CD45+ GR-1+ cells/mL in the peritoneal cavity: zymosan, individual mice
Description: Zymosan (R&D Systems) was administered by intraperitoneal injection at a concentration of 1 µg per mouse in PBS (100 µL). […] Four hours after the zymosan challenge, mice were sacrificed and the peritoneal cavity lavaged with 3 mL of FACS buffer. An aliquot (0.3 mL) of lavage fluid was used to assess the number of CD45^+GR1^+ cells by flow cytometry. Briefly, the cells were treated with ACK lysis buffer, washed and suspended in FACS buffer prior to staining with FITC anti-mouse CD45 and PE anti-mouse GR1 (BD Biosciences). Data are shown as mean ± standard error of the number of CD45^+GR-1^+ cells. Statistical significance (*p < 0.05, **p < 0.01, ***p < 0.001 and ****p < 0.0001) was determined using one-way ANOVA with Dunnett’s multiple comparison test.

mouse TNF [3] = target: T1, mouse TNF; assay: TNF L929 cytotoxicity assay, mouse TNF; format: cell-based; conditions: for Luminescence units: Mouse TNF, L929
Description: TNF (human or mouse) kills L929 cells which have been compromised by incubation with a sub-lethal concentration of actinomycin D, and this effect is inhibited with TNF biologics. Compounds were titrated in DMSO, and then pre-incubated with human or mouse TNF for 1 h. L929 cells (ECACC, #85011425) in media containing actinomycin D (2 µg/mL) were added to the TNF inhibitor mixture and incubated for 18 h. L929 cytotoxicity was measured by the addition of CellTitreGlo (Promega). Luminescence was measured after an incubation of at least 20 min in the dark. Percentage inhibition was calculated between unstimulated wells (maximum signal), and wells with TNF, DMSO and actinomycin D (minimum signal). The IC50 was calculated as the point of inflexion for a 4PL fitted curve. Mean IC50s are reported as a mean of at least two experiments. Cells were described as mycoplasma-free when purchased and were tested using Mycoalert (Lonza) after each batch of assay vial preparation.

Balb/c mice (CAIA model) = assay: Collagen antibody induced arthritis (CAIA) model; format: in vivo, mouse; design: key to Daily arthritis score: 0 = no arthritis, 3 = wrist/ankle, pad and digits affected; conditions: Ab501 i.v. then s.c.; for Daily arthritis score: individual mice, UCB-9260 150 mg/kg po bid
Description: Ab501 (in-house anti-mouse TNF antibody, […]) was administered intravenously 6 h post-LPS administration followed by three further doses administered subcutaneously at 48-h intervals. Animals were scored for signs of arthritis and weighed daily. The following scoring system was used for signs of arthritis: 0-no arthritis, 1-wrist/ankle affected, 2-wrist/ankle and pad affected and 3-wrist/ankle, pad, and digits affected. Data shown as the mean ± standard error of arthritis clinical score for the treatment group. Statistical significance (*p < 0.05, **p < 0.01) was determined using one-way ANOVA with Dunnett’s multiple comparison test.

[4] = tested on: NF-κB stimulated by the TNFR1 agonist antibody; assay: HEK-293 reporter gene assay, anti-TNFR1 agonist antibody stimulus; format: cell-based, human; conditions: agonist antibody 0.3 μg/mL; compound up to 10 µM
Description: as §1

TNF = TNF (Homo sapiens, UniProt P01375); assay: Biacore kinetics of binding; design: Human TNF (CID2043, UniProt P01375 residues 77–233); 6XHis-Smt3 (N, cleaved yes); host or cells: E. coli TOP10; conditions: SPR single-cycle; linked TNF with n-terminal HKH tag; read-out: KD
TNF, sequence (P01375 with tags, fused parts or gaps): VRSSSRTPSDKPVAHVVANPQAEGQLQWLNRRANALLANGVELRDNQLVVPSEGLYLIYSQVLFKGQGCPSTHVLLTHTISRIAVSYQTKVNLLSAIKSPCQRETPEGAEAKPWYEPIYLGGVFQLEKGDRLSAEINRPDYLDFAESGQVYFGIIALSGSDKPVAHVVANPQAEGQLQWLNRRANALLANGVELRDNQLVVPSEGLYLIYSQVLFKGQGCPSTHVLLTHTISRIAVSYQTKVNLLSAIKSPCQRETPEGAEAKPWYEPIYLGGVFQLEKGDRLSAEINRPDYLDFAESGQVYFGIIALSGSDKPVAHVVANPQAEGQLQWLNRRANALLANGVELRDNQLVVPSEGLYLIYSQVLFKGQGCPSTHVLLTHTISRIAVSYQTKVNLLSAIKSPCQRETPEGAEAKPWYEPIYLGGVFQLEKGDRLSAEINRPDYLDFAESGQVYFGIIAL
Description: Surface plasmon resonance using a Biacore T100/T200 was used to measure the association rate constant (ka), the dissociation rate constant (kd) and the affinity (KD) of compounds. TNF (VCID 2043 Beryllium) was immobilised to approximately 5 kRU as described above and equilibrated for at least 5 h in HBS P + buffer with 5% DMSO. UCB-6876 was serially diluted from 187.5 µM, flowing over the immobilised TNF at 50 µL/min for 3 min before allowing full dissociation under flow for at least 6 min. […] […] The compounds were allowed to dissociate for 2 h under flow.

Q: `Cc1ccc(C)c(Cn2c(C(O)c3ccncc3)nc3ccc(-c4cnn(C)c4)cc32)c1` (stereo not shown) [UCB-9260] was tested. Which IC50 (mouse TNF [1]) did it give?
A: 95 nM

Q: And the “percent over bar (inhibition of zymosan-induced neutrophil recruitment)” value ([2]; 10 mg/kg p.o., 4 hours, mean ± s.e.)?
A: 11±14%

Q: What about the “CD45+ GR-1+ cells/mL in the peritoneal cavity” value (“CD45+ GR-1+ cells/mL” below) ([2]; 10mg/kg) of the same molecule?
A: 195599.4 cells/mL and 255505.0 cells/mL and 196418.3 cells/mL and 192743.4 cells/mL and 219374.0 cells/mL and 134444.4 cells/mL and 127176.3 cells/mL and 228610.3 cells/mL

Q: And the “percent over bar (inhibition of zymosan-induced neutrophil recruitment)” value ([2]; 30 mg/kg p.o.)?
A: 10±16%

Q: And the “CD45+ GR-1+ cells/mL” value ([2]; 30mg/kg)?
A: 308000.0 cells/mL and 169293.1 cells/mL and 102620.5 cells/mL and 226129.3 cells/mL and 167710.1 cells/mL and 175546.4 cells/mL and 66491.2 cells/mL and 345608.1 cells/mL

Q: What about the “percent over bar (inhibition of zymosan-induced neutrophil recruitment)” value ([2]; 100 mg/kg p.o.) of the same molecule?
A: 51±10%

Q: What about the “CD45+ GR-1+ cells/mL” value ([2]; 100mg/kg) of the same molecule?
A: 80477.6 cells/mL and 108548.6 cells/mL and 137240.9 cells/mL and 57696.4 cells/mL and 231185.2 cells/mL and 83347.1 cells/mL and 39698.9 cells/mL and 112119.6 cells/mL

Q: What about the “percent over bar (inhibition of zymosan-induced neutrophil recruitment)” value ([2]; 300 mg/kg p.o.) of the same molecule?
A: 64±4%

Q: What about the “CD45+ GR-1+ cells/mL” value ([2]; 300mg/kg) of the same molecule?
A: 106121.8 cells/mL and 78357.0 cells/mL and 70745.1 cells/mL and 93070.9 cells/mL and 117333.3 cells/mL and 57439.3 cells/mL and 69649.3 cells/mL and 44069.8 cells/mL

Q: What about the Luminescence units (mouse TNF [3]; compound -logM 4.6) of the same molecule?
A: 12797 Luminescence units

Q: What about the Luminescence units (mouse TNF [3]; compound -logM 5.08) of the same molecule?
A: 13525 Luminescence units

Q: What about the Luminescence units (mouse TNF [3]; compound -logM 5.56) of the same molecule?
A: 13101 Luminescence units

Q: And the Luminescence units (mouse TNF [3]; compound -logM 6.03)?
A: 12546 Luminescence units

Q: What about the Luminescence units (mouse TNF [3]; compound -logM 6.51) of the same molecule?
A: 10886 Luminescence units

Q: And the Luminescence units (mouse TNF [3]; compound -logM 6.99)?
A: 9129 Luminescence units

Q: What about the Luminescence units (mouse TNF [3]; compound -logM 7.46) of the same molecule?
A: 7403 Luminescence units

Q: And the Luminescence units (mouse TNF [3]; compound -logM 7.94)?
A: 7468 Luminescence units

Q: What about the Luminescence units (mouse TNF [3]; compound -logM 8.42) of the same molecule?
A: 7718 Luminescence units

Q: What about the Luminescence units (mouse TNF [3]; compound -logM 8.9) of the same molecule?
A: 5980 Luminescence units

Q: And the IC50 (mouse TNF [3]; mouse TNF, mouse L929 cells + actinomycin D, read-out: geometric mean IC50, TNF-dependent cytotoxicity)?
A: 120 nM

Q: What about the Daily arthritis score (Balb/c mice (CAIA model); Day 0) of the same molecule?
A: 0

Q: What about the Daily arthritis score (Balb/c mice (CAIA model); Day 1) of the same molecule?
A: 0

Q: What about the Daily arthritis score (Balb/c mice (CAIA model); Day 2) of the same molecule?
A: 0

Q: And the Daily arthritis score (Balb/c mice (CAIA model); Day 3, 150 mg/kg)?
A: 0 and 2 and 1

Q: What about the Daily arthritis score (Balb/c mice (CAIA model); Day 4, 150 mg/kg) of the same molecule?
A: 3 and 0 and 1 and 2

Q: What about the Daily arthritis score (Balb/c mice (CAIA model); Day 5, 150 mg/kg) of the same molecule?
A: 2 and 0 and 1 and 3

Q: What about the Daily arthritis score (Balb/c mice (CAIA model); Day 6, 150 mg/kg) of the same molecule?
A: 1 and 0 and 2 and 3

Q: And the Daily arthritis score (Balb/c mice (CAIA model); Day 7, 150 mg/kg)?
A: 0 and 2 and 3 and 1

Q: What about the “effect on arthritis clinical score” value (Balb/c mice (CAIA model); UCB-9260 150 mg/kg po bid from 6 h after LPS) of the same molecule?
A: significant reduction of the clinical score

Q: And the “inhibition of NF-κB stimulated by TNFR1 agonist antibody” value [4]?
A: no inhibition

Q: And the Kd (TNF)?
A: 13 nM
